Source: PubChem BioAssay (NCI)
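96-well plates; 48 h exposure; 5 concentrations. Endpoints by linear interpolation between flanking doses. Not reached: highest tested concentration assigned. At the GI50, growth is halved. The concentration for full growth arrest is given as TGI.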

Tests used:
Experiment in all cases: DTP human tumour cell line panel, 48 h
[1] = test system: 786-0 renal
[2] = test system: A498 renal
[3] = test system: A549 NSCLC
[4] = test system: ACHN renal
[5] = test system: BT-549 breast
[6] = test system: CAKI-1 renal
[7] = test system: CCRF-CEM leukemia
[8] = test system: COLO 205 colon
[9] = test system: DU-145 prostate
[10] = test system: EKVX NSCLC
[11] = test system: HCC-2998 colon
[12] = test system: HCT-116 colon
[13] = test system: HCT-15 colon
[14] = test system: HL-60(TB) leukemia
[15] = test system: HOP-62 NSCLC
[16] = test system: HOP-92 NSCLC
[17] = test system: HS 578T breast
[18] = test system: HT29 colon
[19] = test system: IGROV1 ovarian
[20] = test system: K-562 leukemia
[21] = test system: KM12 colon
[22] = test system: LOX IMVI melanoma
[23] = test system: M14 melanoma
[24] = test system: MALME-3M melanoma
[25] = test system: MCF7 breast
[26] = test system: MDA-MB-231 breast
[27] = test system: MDA-MB-435
[28] = test system: MOLT-4 leukemia
[29] = test system: NCI-H226 lung
[30] = test system: NCI-H23 lung
[31] = test system: NCI-H460 lung
[32] = test system: NCI-H522 lung
[33] = test system: NCI/ADR-RES ovarian
[34] = test system: OVCAR-3 ovarian
[35] = test system: OVCAR-4 ovarian
[36] = test system: OVCAR-5 ovarian
[37] = test system: OVCAR-8 ovarian
[38] = test system: PC-3 prostate
[39] = test system: RPMI-8226 leukemia
[40] = test system: RXF 393 renal
[41] = test system: SF-268 CNS
[42] = test system: SF-295 CNS
[43] = test system: SF-539 CNS
[44] = test system: SK-MEL-2 melanoma
[45] = test system: SK-MEL-28 melanoma
[46] = test system: SK-MEL-5 melanoma
[47] = test system: SK-OV-3 ovarian
[48] = test system: SN12C renal
[49] = test system: SNB-19 CNS
[50] = test system: SNB-75 CNS
[51] = test system: SW-620 colon
[52] = test system: T-47D breast
[53] = test system: TK-10 renal
[54] = test system: U251 CNS
[55] = test system: UACC-257 melanoma
[56] = test system: UACC-62 melanoma
[57] = test system: UO-31 renal

`C=C(CO)[C@@H]1CC[C@]2(COC3CCCCO3)CC[C@]3(C)[C@H](CC[C@@H]4[C@@]5(C)C=C(C=O)C(=O)C(C)(C)[C@@H]5CC[C@]43C)[C@@H]12` (some centres undefined) gave a GI50 [1] of 185 nM, a TGI [1] of 406 nM and a GI50 [2] of 234 nM. For the same compound, the TGI [2] was 938 nM, the GI50 [3] was 495 nM and the TGI [3] was 1870 nM. It also gave a GI50 [4] of 210 nM, a TGI [4] of 488 nM and a GI50 [5] of 221 nM. It also gave a TGI [5] of 619 nM, a GI50 [6] of 245 nM and a TGI [6] of 700 nM. It also gave a GI50 [7] of 211 nM, a TGI [7] of 1120 nM and a GI50 [8] of 273 nM. It also gave a TGI [8] of 833 nM, a GI50 [9] of 523 nM and a TGI [9] of 1720 nM. It also gave a GI50 [10] of 259 nM, a TGI [10] of 856 nM and a GI50 [11] of 286 nM. For the same compound, the TGI [11] was 838 nM, the GI50 [12] was 303 nM and the TGI [12] was 1080 nM. For the same compound, the GI50 [13] was 247 nM, the TGI [13] was 718 nM and the GI50 [14] was 250 nM. It also gave a TGI [14] of 994 nM, a GI50 [15] of 1510 nM and a TGI [15] of 3230 nM. It also gave a GI50 [16] of 147 nM, a TGI [16] of 312 nM and a GI50 [17] of 318 nM. It also gave a TGI [17] of 997 nM, a GI50 [18] of 327 nM and a TGI [18] of 1100 nM. For the same compound, the GI50 [19] was 231 nM, the TGI [19] was 515 nM and the GI50 [20] was 316 nM. For the same compound, the TGI [20] was 1280 nM, the GI50 [21] was 555 nM and the TGI [21] was 1940 nM. It also gave a GI50 [22] of 191 nM, a TGI [22] of 392 nM and a GI50 [23] of 247 nM. The TGI [23] was 672 nM, the GI50 [24] was 222 nM and the TGI [24] was 544 nM. The GI50 [25] was 479 nM, the TGI [25] was 1970 nM and the GI50 [26] was 214 nM. It also gave a TGI [26] of 565 nM, a GI50 [27] of 214 nM and a TGI [27] of 494 nM. It also gave a GI50 [28] of 307 nM, a TGI [28] of 1210 nM and a GI50 [29] of 538 nM. It also gave a TGI [29] of 1470 nM, a GI50 [30] of 311 nM and a TGI [30] of 1020 nM. For the same compound, the GI50 [31] was 500 nM, the TGI [31] was 1750 nM and the GI50 [32] was 205 nM. For the same compound, the TGI [32] was 487 nM, the GI50 [33] was 479 nM and the TGI [33] was 1800 nM. For the same compound, the GI50 [34] was 207 nM, the TGI [34] was 428 nM and the GI50 [35] was 298 nM. For the same compound, the TGI [35] was 979 nM, the GI50 [36] was 232 nM and the TGI [36] was 853 nM. For the same compound, the GI50 [37] was 356 nM, the TGI [37] was 1440 nM and the GI50 [38] was 237 nM. It also gave a TGI [38] of 973 nM, a GI50 [39] of 244 nM and a TGI [39] of 777 nM. It also gave a GI50 [40] of 172 nM, a TGI [40] of 334 nM and a GI50 [41] of 297 nM. For the same compound, the TGI [41] was 979 nM, the GI50 [42] was 506 nM and the TGI [42] was 1790 nM. It also gave a GI50 [43] of 196 nM, a TGI [43] of 428 nM and a GI50 [44] of 448 nM. For the same compound, the TGI [44] was 1820 nM, the GI50 [45] was 254 nM and the TGI [45] was 688 nM. It also gave a GI50 [46] of 380 nM, a TGI [46] of 1460 nM and a GI50 [47] of 1300 nM. For the same compound, the TGI [47] was 2680 nM, the GI50 [48] was 228 nM and the TGI [48] was 671 nM. For the same compound, the GI50 [49] was 414 nM, the TGI [49] was 1440 nM and the GI50 [50] was 206 nM. For the same compound, the TGI [50] was 625 nM, the GI50 [51] was 267 nM and the TGI [51] was 832 nM. The GI50 [52] was 332 nM, the TGI [52] was 1650 nM and the GI50 [53] was 257 nM. For the same compound, the TGI [53] was 688 nM, the GI50 [54] was 209 nM and the TGI [54] was 546 nM. It also gave a GI50 [55] of 367 nM, a TGI [55] of 1610 nM and a GI50 [56] of 177 nM. It also gave a TGI [56] of 386 nM, a GI50 [57] of 187 nM and a TGI [57] of 433 nM.
